Assays:
EGFR (ErbB1) T790M L858R = target: T1, EGFR (ErbB1) T790M L858R (Homo sapiens, UniProt P00533, L858R/T790M); assay: Z'-LYTE kinase inhibition assay (Invitrogen), EGFR L858R/T790M; format: biochemical; settings: for inhibition at 0.0137 µM: compound at 13.7 nM, 10 μM of ATP; for inhibition at 0.1 µM: compound at 100 nM, [ATP] = Km
T1 construct: purchased Invitrogen
Description: (§1) Inhibitory activities of compounds against BTK, EGFR and EGFR mutants (EGFR L858R/T790M) were measured by Invitrogen using Z′-LYTE® Method as briefly described in the following.
(§2) Test Compounds are screened in 1% DMSO (final) in the well. For 10 point titrations, 3-fold serial dilutions are conducted from the starting concentration. All ATP Solutions are diluted to a 4× working concentration in Kinase Buffer (50 mM HEPES pH 7.5, 0.01% BRIJ-35, 10 mM MgCl2, 1 mM EGTA). Peptide/Kinase Mixtures are diluted to a 2× working concentration in the appropriate Kinase Buffers as described below.
(iv) Peptide/Kinase Mixtures for measurement of EGFR (ErbB1) T790M L858R:
The 2×EGFR (ErbB1) T790M L858R/Tyr 04 mixture is prepared in 50 mM HEPES pH 6.5, 0.01% BRIJ-35, 10 mM MgCl2, 1 mM EGTA, 0.02% NaN3. The final 10 μL Kinase Reaction consists of 0.38-4.22 ng EGFR (ErbB1) T790M L858R and 2 μM Tyr 04 in 50 mM HEPES pH 7.0, 0.01% BRIJ-35, 10 mM MgCl2, 1 mM EGTA, 0.01% NaN3. After the 1 hour Kinase Reaction incubation, 5 μL of a 1:64 dilution of Development Reagent B is added.
(§3) Reaction starts by 30-second shaking of mixture consisting of 2.5 μL 4× test compound, 5 μL 2× kinase reaction mixture and 2.5 μL 4×ATP Solution on Bar-coded Corning, low volume NBS, black 384-well plate (Corning Cat. #3676). Then the mixture is incubated for 60-minute at room temperature for the kinase reaction, followed by addition of 5 μL of a 1:1024 dilution of development reagent A and 30-second plate shake. The mixture is then incubated for another 60-minute at room temperature for development reaction. Finally fluorescence is read by plate reader. […] The scale utilized in Tables 2 and 3 is as follows: ++ more than 50% inhibition and + less than 50% inhibition.
(§4) To determine IC50 of a compound against EGFR or EGFR mutants, a series of concentrations of the compound were tested for the inhibition. IC50 was calculated by plotting the concentration of compound vs the percentage of inhibition in treated wells using GraphPad Prism 5. […] The scale utilized in Table 4 is as follows: ++ less than 100 nM and + greater than 100 nM.

H1975 cells = assay: MTT cell growth inhibition assay, H1975; format: cell-based; settings: Homo sapiens, NCI-H1975, H1975 cells (EGFR L858R/T790M), 72 h
Description: Inhibition of cell growth by compounds was measured using MTT assay (Mosmann, T., Journal of Immunological Methods, 1983, 65, 55-63). Tumor cell lines were purchased from ATCC (American Type Culture Collection, Manassas, Va.). All cell lines were maintained in RPMI 1640 (Hyclone) supplemented with 10% fetal bovine serum (FBS, Hyclone), glutamine (2 mM, Hyclone), and antibiotics (penicillin 100 U/mL and streptomycin 50 μg/mL) at 37° C. in a humidified atmosphere of 5% CO2 in air. Taxol (as a positive control, Sigma) and compounds were dissolved in DMSO (Sigma), and the final concentration of DMSO in the medium was 1%. Tumor cells were plated in 96-well plates at densities of about 4000 cells/well of a 96-well plate and allowed to adhere/grow for 24 h. They were then treated with various concentrations of drug for 72 h. 3-(4,5-Dimethylthiazol-2-yl)-2,5-diphenyltetrazolium bromide (MTT, Sigma) was used to determine the number of viable cells at the time of compound addition and the number of cells remaining after 72 h compound exposure. The number of cells remaining after 72 h was compared to the number of viable cells at the time of compound addition by measuring the absorbance at 570 nm, allowing for the calculation of growth inhibition.
All concentrations of compounds were tested in triplicate and controls were averaged over 4 wells. IC50 was calculated by plotting the concentration of compound vs the percentage of inhibition in treated wells using GraphPad Prism 5.
Tables 5 show IC50 values of several compounds of the invention in A549, A431, H1299, and H1975 human cancer cells. A549 cells have a mutation on KRAS, H3255 cells have L858R mutation, and H1975 cells have double EGFR mutations (L858R/T790M). The scale utilized in Table 5 is as follows: +++ less than 100 nM; ++ between 100 nM and 500 nM; and + greater than 500 nM.

EGFR (ErbB1) = target: T2, EGFR (ErbB1) (Homo sapiens, UniProt P00533); assay: Z'-LYTE kinase inhibition assay (Invitrogen), EGFR; format: biochemical; settings: for inhibition at 0.041 µM: compound at 41 nM, 10 μM of ATP; for inhibition at 0.1 µM: compound at 100 nM, [ATP] = Km
T2 construct: purchased Invitrogen
Description: as §1, §2
(i) Peptide/Kinase Mixtures for measurement of EGFR (ErbB1):
The 2×EGFR (ErbB1)/Tyr 04 mixture is prepared in 50 mM HEPES pH 7.5, 0.01% BRIJ-35, 10 mM MgCl2, 4 mM MnCl2, 1 mM EGTA, 2 mMDTT. The final 10 μL Kinase Reaction consists of 1.1-5.25 ng EGFR (ErbB1) and 2 μM Tyr 04 in 50 mM HEPES pH 7.5, 0.01% BRIJ-35, 10 mM MgCl2, 2 mM MnCl2, 1 mM EGTA, 1 mM DTT. After the 1 hour Kinase Reaction incubation, 5 μL of a 1:64 dilution of DevelopmentReagent B is added.
as §3, §4

BTK = target: T3, BTK (Homo sapiens, UniProt Q06187); assay: Z'-LYTE kinase inhibition assay (Invitrogen), BTK; format: biochemical; settings: for inhibition at 0.1 µM: compound at 100 nM, [ATP] = Km; for inhibition at 0.041 µM: compound at 41 nM, 10 μM of ATP
T3 construct: purchased Invitrogen
Description: as §1, §2
(v) Peptide/Kinase Mixtures for measurement of BTK:
The 2×BTK/Tyr 01 mixture is prepared in 50 mM HEPES pH 7.5, 0.01% BRIJ-35, 10 mM MgCl2, 1 mM EGTA. The final 10 μL Kinase Reaction consists of 1.04-10.4 ng BTK and 2 μM Tyr 01 in 50 mM HEPES pH 7.5, 0.01% BRIJ-35, 10 mM MgCl2, 1 mM EGTA. After the 1 hour Kinase Reaction incubation, 5 μL of a 1:256 dilution of Development Reagent B is added.
as §3, §4

T1 sequence (P00533 25-1210 T790M/L858R): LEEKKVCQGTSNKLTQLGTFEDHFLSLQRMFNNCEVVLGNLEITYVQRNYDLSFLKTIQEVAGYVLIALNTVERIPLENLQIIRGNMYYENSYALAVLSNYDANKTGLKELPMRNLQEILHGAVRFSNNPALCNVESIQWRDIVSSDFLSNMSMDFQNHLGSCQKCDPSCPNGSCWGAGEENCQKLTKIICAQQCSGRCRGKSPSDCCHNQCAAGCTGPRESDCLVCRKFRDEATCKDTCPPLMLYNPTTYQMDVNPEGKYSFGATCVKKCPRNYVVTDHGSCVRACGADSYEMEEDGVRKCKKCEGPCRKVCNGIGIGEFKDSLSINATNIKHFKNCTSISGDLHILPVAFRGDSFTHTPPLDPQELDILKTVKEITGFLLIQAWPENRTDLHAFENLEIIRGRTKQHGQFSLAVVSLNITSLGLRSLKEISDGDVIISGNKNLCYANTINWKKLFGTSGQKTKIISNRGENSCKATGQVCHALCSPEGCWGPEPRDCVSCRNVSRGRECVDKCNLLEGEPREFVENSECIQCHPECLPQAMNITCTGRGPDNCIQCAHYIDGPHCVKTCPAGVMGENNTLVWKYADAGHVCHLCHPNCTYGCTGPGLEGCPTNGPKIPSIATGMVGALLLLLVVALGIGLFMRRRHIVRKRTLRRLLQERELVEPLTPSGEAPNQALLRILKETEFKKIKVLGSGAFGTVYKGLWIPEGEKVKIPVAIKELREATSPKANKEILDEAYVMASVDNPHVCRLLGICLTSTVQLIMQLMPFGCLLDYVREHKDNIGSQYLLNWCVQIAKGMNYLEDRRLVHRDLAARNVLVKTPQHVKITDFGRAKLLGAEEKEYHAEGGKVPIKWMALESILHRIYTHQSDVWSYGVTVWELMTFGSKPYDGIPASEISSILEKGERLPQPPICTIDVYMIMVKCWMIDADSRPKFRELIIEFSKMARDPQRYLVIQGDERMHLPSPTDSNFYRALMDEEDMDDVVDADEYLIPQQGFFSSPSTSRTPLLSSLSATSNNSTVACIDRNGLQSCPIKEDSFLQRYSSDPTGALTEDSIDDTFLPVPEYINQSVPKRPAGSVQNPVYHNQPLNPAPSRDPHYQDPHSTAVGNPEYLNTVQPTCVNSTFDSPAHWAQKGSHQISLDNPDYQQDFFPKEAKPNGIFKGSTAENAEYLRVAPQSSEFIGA
T2 sequence (P00533 25-1210): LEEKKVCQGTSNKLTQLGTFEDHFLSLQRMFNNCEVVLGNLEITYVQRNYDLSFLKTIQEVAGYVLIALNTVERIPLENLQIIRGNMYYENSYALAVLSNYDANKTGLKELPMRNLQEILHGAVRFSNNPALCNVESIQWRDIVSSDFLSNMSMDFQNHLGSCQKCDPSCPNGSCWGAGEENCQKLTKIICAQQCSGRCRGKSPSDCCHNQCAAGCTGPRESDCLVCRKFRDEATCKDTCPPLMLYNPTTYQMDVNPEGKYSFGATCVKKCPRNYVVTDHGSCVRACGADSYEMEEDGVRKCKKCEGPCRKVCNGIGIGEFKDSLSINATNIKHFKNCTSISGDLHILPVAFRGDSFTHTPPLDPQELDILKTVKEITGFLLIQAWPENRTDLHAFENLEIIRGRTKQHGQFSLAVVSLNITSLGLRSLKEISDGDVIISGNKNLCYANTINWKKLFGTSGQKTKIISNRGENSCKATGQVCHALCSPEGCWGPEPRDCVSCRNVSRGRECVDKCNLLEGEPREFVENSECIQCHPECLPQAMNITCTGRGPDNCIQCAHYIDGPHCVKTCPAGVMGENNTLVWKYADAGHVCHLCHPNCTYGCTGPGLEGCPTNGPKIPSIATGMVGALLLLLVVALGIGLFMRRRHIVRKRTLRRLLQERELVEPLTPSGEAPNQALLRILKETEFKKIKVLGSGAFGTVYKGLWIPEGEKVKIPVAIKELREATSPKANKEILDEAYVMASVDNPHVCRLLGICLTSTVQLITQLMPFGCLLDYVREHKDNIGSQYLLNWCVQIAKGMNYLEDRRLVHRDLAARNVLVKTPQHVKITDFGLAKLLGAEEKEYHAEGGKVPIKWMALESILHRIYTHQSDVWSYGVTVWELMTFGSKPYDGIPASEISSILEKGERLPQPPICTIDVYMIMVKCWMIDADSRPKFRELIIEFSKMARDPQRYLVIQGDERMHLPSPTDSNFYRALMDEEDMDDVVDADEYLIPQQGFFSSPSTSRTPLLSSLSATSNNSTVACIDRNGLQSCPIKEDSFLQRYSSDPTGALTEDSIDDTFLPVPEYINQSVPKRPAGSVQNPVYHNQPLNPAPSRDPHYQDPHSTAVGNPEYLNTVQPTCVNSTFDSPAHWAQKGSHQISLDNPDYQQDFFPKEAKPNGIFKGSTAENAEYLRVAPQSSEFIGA
T3 sequence (Q06187 whole entry): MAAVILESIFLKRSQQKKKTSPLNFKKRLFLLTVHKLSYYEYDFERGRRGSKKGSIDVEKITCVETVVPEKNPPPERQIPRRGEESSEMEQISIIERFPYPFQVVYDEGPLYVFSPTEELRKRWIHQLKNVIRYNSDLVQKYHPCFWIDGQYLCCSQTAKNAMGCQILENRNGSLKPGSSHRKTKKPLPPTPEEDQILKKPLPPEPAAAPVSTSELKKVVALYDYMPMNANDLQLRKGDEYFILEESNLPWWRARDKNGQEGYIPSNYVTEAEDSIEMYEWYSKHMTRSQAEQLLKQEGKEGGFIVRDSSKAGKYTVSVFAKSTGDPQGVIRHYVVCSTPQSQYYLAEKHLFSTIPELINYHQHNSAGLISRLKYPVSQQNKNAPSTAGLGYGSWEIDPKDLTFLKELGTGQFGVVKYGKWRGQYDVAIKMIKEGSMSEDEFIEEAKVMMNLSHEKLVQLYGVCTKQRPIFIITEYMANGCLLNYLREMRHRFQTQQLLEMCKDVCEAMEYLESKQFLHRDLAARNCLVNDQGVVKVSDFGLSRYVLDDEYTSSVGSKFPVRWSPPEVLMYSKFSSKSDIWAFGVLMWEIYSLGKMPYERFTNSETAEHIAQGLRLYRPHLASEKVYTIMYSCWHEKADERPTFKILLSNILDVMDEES

Row | Structure (SMILES) | inhibition at 0.0137 µM (EGFR (ErbB1) T790M L858R) | inhibition at 0.1 µM (EGFR (ErbB1) T790M L858R) | IC50 (H1975 cells) | inhibition at 0.041 µM (EGFR (ErbB1)) | inhibition at 0.1 µM (EGFR (ErbB1)) | inhibition at 0.1 µM (BTK) | inhibition at 0.041 µM (BTK)
1 | C=CC(=O)Nc1cc(Nc2ncc3cccc(-c4cccc(Cl)c4)c3n2)ccc1OCCOC [Example C015, N-(5-((8-(3-chlorophenyl)quinazolin-2-yl)amino)-2-(2-methoxyethoxy)phenyl)acrylamide] | < 50% | < 50% | > 500 nM | < 50% | < 50% | < 50% | –
2 | C=CC(=O)Nc1cc(Nc2ncc3cccc(-c4cccc(Cl)c4)c3n2)ccc1N1CCN(C)CC1 [Example C011, N-(5-((8-(3-chlorophenyl)quinazolin-2-yl)amino)-2-(4-methylpiperazin-1-yl)phenyl)acrylamide] | < 50% | < 50% | < 100 nM | < 50% | < 50% | > 50% | –
3 | C=CC(=O)Nc1cc(Nc2ncc3cccc(-c4cccc(Cl)c4)c3n2)ccc1OC1CCN(C)CC1 [Example C013, N-(5-((8-(3-chlorophenyl)quinazolin-2-yl)amino)-2-((1-methylpiperidin-4-yl)oxy)phenyl)acrylamide] | > 50% | < 50% | 100 to 500 nM | < 50% | < 50% | > 50% | –
4 | C=CC(=O)Nc1cc(Nc2ncc3cccc(-c4cncc(Cl)c4)c3n2)ccc1N(C)CCN(C)C [Example C021] | – | > 50% | < 100 nM | – | < 50% | > 50% | –
5 | C=CC(=O)Nc1cc(Nc2ncc3cccc(-c4cccnc4)c3n2)ccc1N(C)CCN(C)C [Example C010, N-(2-((2-(dimethylamino)ethyl)(methyl)amino)-5-((8-(pyridin-3-yl)quinazolin-2-yl)amino)phenyl)acrylamide] | < 50% | < 50% | 100 to 500 nM | < 50% | < 50% | > 50% | > 50%
6 | C=CC(=O)Nc1cc(Nc2ncc3cccc(-c4ccccc4F)c3n2)ccc1N(C)CCN(C)C [Example C009, N-(2-((2-(dimethylamino)ethyl)(methyl)amino)-5-((8-(2-fluorophenyl)quinazolin-2-yl)amino)phenyl)acrylamide] | > 50% | < 50% | < 100 nM | < 50% | < 50% | > 50% | > 50%

From patent US10947201B2, “Certain chemical entities, compositions, and methods” (NEUPHARMA, INC., priority 2015, dated 2021)
